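These data come from cells grown in 96-well plates and exposed to compound for 48 hours at five concentrations. At the TGI there is no net growth.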
Key:
Experiment in all cases: DTP human tumour cell line panel, 48 h
DLD-1 colon = system: DLD-1 colon
OVCAR-4 ovarian = system: OVCAR-4 ovarian
HOP-92 NSCLC = system: HOP-92 NSCLC
CCRF-CEM leukemia = system: CCRF-CEM leukemia
K-562 leukemia = system: K-562 leukemia
DMS 114 small cell lung = system: DMS 114 small cell lung
LXFL 529 NSCLC = system: LXFL 529 NSCLC
SNB-75 CNS = system: SNB-75 CNS
IGROV1 ovarian = system: IGROV1 ovarian
786-0 renal = system: 786-0 renal
OVCAR-8 ovarian = system: OVCAR-8 ovarian
RPMI-8226 leukemia = system: RPMI-8226 leukemia
SN12C renal = system: SN12C renal
HCC-2998 colon = system: HCC-2998 colon
UO-31 renal = system: UO-31 renal
SK-OV-3 ovarian = system: SK-OV-3 ovarian
SNB-78 CNS = system: SNB-78 CNS
UACC-62 melanoma = system: UACC-62 melanoma
HL-60(TB) leukemia = system: HL-60(TB) leukemia
SK-MEL-5 melanoma = system: SK-MEL-5 melanoma
OVCAR-5 ovarian = system: OVCAR-5 ovarian
NCI-H460 lung = system: NCI-H460 lung
SF-268 CNS = system: SF-268 CNS
MALME-3M melanoma = system: MALME-3M melanoma
ACHN renal = system: ACHN renal
NCI-H23 lung = system: NCI-H23 lung
U251 CNS = system: U251 CNS
EKVX NSCLC = system: EKVX NSCLC
UACC-257 melanoma = system: UACC-257 melanoma
NCI-H522 lung = system: NCI-H522 lung
XF 498 CNS = system: XF 498 CNS
SF-295 CNS = system: SF-295 CNS
CAKI-1 renal = system: CAKI-1 renal
M14 melanoma = system: M14 melanoma
COLO 205 colon = system: COLO 205 colon
KM12 colon = system: KM12 colon
RXF 393 renal = system: RXF 393 renal
TK-10 renal = system: TK-10 renal
HCT-15 colon = system: HCT-15 colon
SF-539 CNS = system: SF-539 CNS
LOX IMVI melanoma = system: LOX IMVI melanoma
A549 NSCLC = system: A549 NSCLC
SK-MEL-2 melanoma = system: SK-MEL-2 melanoma
MOLT-4 leukemia = system: MOLT-4 leukemia
HT29 colon = system: HT29 colon
OVCAR-3 ovarian = system: OVCAR-3 ovarian
NCI-H226 lung = system: NCI-H226 lung
HOP-62 NSCLC = system: HOP-62 NSCLC
SK-MEL-28 melanoma = system: SK-MEL-28 melanoma
KM20L2 colon = system: KM20L2 colon
A498 renal = system: A498 renal
RXF-631 renal = system: RXF-631 renal
SW-620 colon = system: SW-620 colon
MDA-N = system: MDA-N
PC-3 prostate = system: PC-3 prostate
BT-549 breast = system: BT-549 breast
T-47D breast = system: T-47D breast
MCF7 breast = system: MCF7 breast
NCI/ADR-RES ovarian = system: NCI/ADR-RES ovarian
DU-145 prostate = system: DU-145 prostate
MDA-MB-231 breast = system: MDA-MB-231 breast
HCT-116 colon = system: HCT-116 colon
M19-MEL melanoma = system: M19-MEL melanoma
HS 578T breast = system: HS 578T breast
DMS 273 small cell lung = system: DMS 273 small cell lung
HOP-18 NSCLC = system: HOP-18 NSCLC
MDA-MB-435 = system: MDA-MB-435
SNB-19 CNS = system: SNB-19 CNS
SR leukemia = system: SR leukemia

SMILES: O=C1O[C@@H](c2ccccc2)C[C@H]1CN1CCOCC1
- TGI (DLD-1 colon): > 100 µM
- TGI (OVCAR-4 ovarian): > 100 µM
- TGI (HOP-92 NSCLC): > 100 µM
- TGI (CCRF-CEM leukemia): > 100 µM
- TGI (K-562 leukemia): > 100 µM
- TGI (DMS 114 small cell lung): > 100 µM
- TGI (LXFL 529 NSCLC): > 100 µM
- TGI (SNB-75 CNS): > 100 µM
- TGI (IGROV1 ovarian): > 100 µM
- TGI (786-0 renal): > 100 µM
- TGI (OVCAR-8 ovarian): > 100 µM
- TGI (RPMI-8226 leukemia): > 100 µM
- TGI (SN12C renal): > 100 µM
- TGI (HCC-2998 colon): > 100 µM
- TGI (UO-31 renal): > 100 µM
- TGI (SK-OV-3 ovarian): > 100 µM
- TGI (SNB-78 CNS): > 100 µM
- TGI (UACC-62 melanoma): > 100 µM
- TGI (HL-60(TB) leukemia): > 100 µM
- TGI (SK-MEL-5 melanoma): > 100 µM
- TGI (OVCAR-5 ovarian): > 100 µM
- TGI (NCI-H460 lung): > 100 µM
- TGI (SF-268 CNS): > 100 µM
- TGI (MALME-3M melanoma): > 100 µM
- TGI (ACHN renal): > 100 µM
- TGI (NCI-H23 lung): 35.4 µM
- TGI (U251 CNS): > 100 µM
- TGI (EKVX NSCLC): > 100 µM
- TGI (UACC-257 melanoma): > 100 µM
- TGI (NCI-H522 lung): > 100 µM
- TGI (XF 498 CNS): > 100 µM
- TGI (SF-295 CNS): > 100 µM
- TGI (CAKI-1 renal): 41.3 µM
- TGI (M14 melanoma): > 100 µM
- TGI (COLO 205 colon): > 100 µM
- TGI (KM12 colon): > 100 µM
- TGI (RXF 393 renal): > 100 µM
- TGI (TK-10 renal): > 100 µM
- TGI (HCT-15 colon): > 100 µM
- TGI (SF-539 CNS): > 100 µM
- TGI (LOX IMVI melanoma): > 100 µM
- TGI (A549 NSCLC): > 100 µM
- TGI (SK-MEL-2 melanoma): > 100 µM
- TGI (MOLT-4 leukemia): > 100 µM
- TGI (HT29 colon): > 100 µM
- TGI (OVCAR-3 ovarian): > 100 µM
- TGI (NCI-H226 lung): > 100 µM
- TGI (HOP-62 NSCLC): > 100 µM
- TGI (SK-MEL-28 melanoma): > 100 µM
- TGI (KM20L2 colon): > 100 µM
- TGI (A498 renal): > 100 µM
- TGI (RXF-631 renal): > 100 µM
- TGI (SW-620 colon): > 100 µM

SMILES: O=C1C=CC(=O)c2c(O)ccc(O)c21
- TGI (DLD-1 colon): 0.891 µM
- TGI (OVCAR-4 ovarian): 4.97 µM
- TGI (HOP-92 NSCLC): 3.21 µM
- TGI (MDA-N): 8.18 µM
- TGI (CCRF-CEM leukemia): 0.966 µM
- TGI (PC-3 prostate): 29.5 µM
- TGI (K-562 leukemia): > 25 µM
- TGI (DMS 114 small cell lung): 5.27 µM
- TGI (LXFL 529 NSCLC): 1.64 µM
- TGI (SNB-75 CNS): 6.98 µM
- TGI (IGROV1 ovarian): 15.5 µM
- TGI (786-0 renal): 2.55 µM
- TGI (OVCAR-8 ovarian): 2.05 µM
- TGI (SN12C renal): 3.08 µM
- TGI (HCC-2998 colon): 10.5 µM
- TGI (UO-31 renal): 4.69 µM
- TGI (SK-OV-3 ovarian): 27.5 µM
- TGI (BT-549 breast): 4.8 µM
- TGI (SNB-78 CNS): 6.37 µM
- TGI (UACC-62 melanoma): 3.95 µM
- TGI (HL-60(TB) leukemia): 0.831 µM
- TGI (SK-MEL-5 melanoma): 6.08 µM
- TGI (OVCAR-5 ovarian): 13.1 µM
- TGI (T-47D breast): 4.61 µM
- TGI (MCF7 breast): 6.59 µM
- TGI (NCI/ADR-RES ovarian): 3.72 µM
- TGI (NCI-H460 lung): 9.79 µM
- TGI (SF-268 CNS): 8.39 µM
- TGI (MALME-3M melanoma): 2.39 µM
- TGI (ACHN renal): 2.67 µM
- TGI (NCI-H23 lung): 7.39 µM
- TGI (DU-145 prostate): 28 µM
- TGI (U251 CNS): 14.8 µM
- TGI (MDA-MB-231 breast): 6.64 µM
- TGI (EKVX NSCLC): 7.4 µM
- TGI (UACC-257 melanoma): 2.45 µM
- TGI (NCI-H522 lung): 1.16 µM
- TGI (XF 498 CNS): 3.07 µM
- TGI (SF-295 CNS): 16.1 µM
- TGI (CAKI-1 renal): 2.82 µM
- TGI (M14 melanoma): 1.32 µM
- TGI (HCT-116 colon): 2.39 µM
- TGI (COLO 205 colon): 1.66 µM
- TGI (KM12 colon): 13 µM
- TGI (RXF 393 renal): 2.02 µM
- TGI (TK-10 renal): 2.75 µM
- TGI (HCT-15 colon): 1.65 µM
- TGI (M19-MEL melanoma): 1.49 µM
- TGI (SF-539 CNS): 5.84 µM
- TGI (HS 578T breast): 6.57 µM
- TGI (LOX IMVI melanoma): 3.8 µM
- TGI (A549 NSCLC): 33.1 µM
- TGI (SK-MEL-2 melanoma): 17.4 µM
- TGI (MOLT-4 leukemia): 4.45 µM
- TGI (DMS 273 small cell lung): 7.55 µM
- TGI (HT29 colon): 5.68 µM
- TGI (HOP-18 NSCLC): 2.17 µM
- TGI (MDA-MB-435): 13.1 µM
- TGI (OVCAR-3 ovarian): 5.87 µM
- TGI (NCI-H226 lung): 18.5 µM
- TGI (HOP-62 NSCLC): 19.3 µM
- TGI (SK-MEL-28 melanoma): 2.76 µM
- TGI (KM20L2 colon): 4.97 µM
- TGI (A498 renal): 7.78 µM
- TGI (SW-620 colon): 1.1 µM
- TGI (SNB-19 CNS): 16.6 µM
- TGI (SR leukemia): 1.75 µM

Reference: PubChem BioAssay (NCI)
